This note sets out measurements from paper PMC6302903, “Protein and Chemical Determinants of BL-1249 Action and Selectivity for K2P Channels” (ACS Chemical Neuroscience, 2018).

The test addresses T1, K2P13.1(THIK-1) (Mus musculus, UniProt Q8R1P5).
T1 construct: expressed in transfected cells; host or cells: Xenopus laevis oocytes (mRNA injection, pGEMHE/pMO)
The test can be described thus: TEVC of K2P13.1(THIK-1) in Xenopus oocytes. It is filed as cell-based. Conditions: concentrations up to the solubility limit (∼80 μM). How it is done: BL-1249 activates K2P2.1(TREK-1)[18],[40] and K2P10.1(TREK-2),[7] but its effects on other K2P channels have not been characterized. […] In order to test if the original 10 μM assay had missed BL-1249 effects in other K2P channels, we tested concentrations of BL-1249 up to the solubility limit (∼80 μM) against the other K2P subfamily representatives. […]
Xenopus laevis oocytes were harvested in accordance with UCSF IACUC protocol AN129690 and digested in calcium-free ND-96 (96 mM NaCl, 2 mM KCl, 3.8 mM MgCl2) immediately following harvest, as previously described.[6],[10] […] Defolliculated stage V–VI oocytes were injected with 0.2–6.0 ng of mRNA in 50 nL, and currents were recorded 24–48 h after injection. mRNA was synthesized from plasmid DNA using mMessage mMachine Kit (T7 promoter, Ambion, Life Technologies) and purified using RNEasy Kit (Qiagen). […] Once stabilized basal currents were recorded, compounds were perfused at various concentrations in standard ND96 and currents were allowed to increase to stabilization before recording final current. Fold activation upon compound application is expressed as I/I0 (0 mV), derived from the current at 0 mV in the presence of compound divided by the basal current at 0 mV in standard ND96 without compound. Data were analyzed and plotted using Graphpad Prism Version 5 (GraphPad Software, San Diego California USA, www.graphpad.com). […]

The structures appear in SMILES notation.

T1 sequence (Q8R1P5 whole entry): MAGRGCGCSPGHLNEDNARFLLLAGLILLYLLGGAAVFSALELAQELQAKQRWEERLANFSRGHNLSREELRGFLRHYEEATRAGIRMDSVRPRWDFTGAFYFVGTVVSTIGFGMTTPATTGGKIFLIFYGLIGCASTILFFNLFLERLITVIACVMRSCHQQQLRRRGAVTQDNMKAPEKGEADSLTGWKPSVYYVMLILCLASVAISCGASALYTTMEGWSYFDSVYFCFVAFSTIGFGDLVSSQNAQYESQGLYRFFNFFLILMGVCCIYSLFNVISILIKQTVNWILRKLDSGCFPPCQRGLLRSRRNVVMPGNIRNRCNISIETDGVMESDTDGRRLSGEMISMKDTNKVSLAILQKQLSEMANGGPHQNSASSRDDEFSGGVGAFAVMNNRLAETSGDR

On to `c1ccc(-c2nnn[nH]2)c(Nc2cccc3c2CCCC3)c1` [BL-1249, (5,6,7,8-tetrahydro-naphthalen-1-yl)-[2-(1H-tetrazol-5-yl)-phenyl]-amine], for which the “activation of K2P13.1(THIK-1)” value is given as “failed to find evidence for activation”.
